# Measurements as given in PMC8486872, “A rational blueprint for the design of chemically-controlled protein switches” (Nature Communications, 2021).
# Where “and” joins values, the source holds several entries; their conditions need not be identical. Identical values can stand only once.
# What was measured:
# [1] = tested on: JAK/STAT pathway SEAP expression in HEK293T cells; experiment: CDH-GEMS receptor signaling SEAP assay; format: cell-based; conditions: Suppl Fig 9b
# Text: To test modularity and performance robustness of the CDHs in different molecular contexts, we inserted these modules in the generalizable extracellular molecule sensor (GEMS) receptor signaling pathway platform[24] and built CDH-GEMS. In these constructs the CDHs are localized extracellularly and function as ectodomain switches, fused to the backbone of the erythropoietin receptor, and an intracellular interleukin 6 receptor domain which activates the JAK/STAT pathway (Fig. 3d). The CDH-GEMS trigger the activation of the JAK/STAT pathway by the dimerization of their subunits. Thus, the drugs are expected to split the CDHs inactivating the signaling pathway as assessed by the expression of the reporter protein SEAP. All three CDH-GEMS were responsive to their respective drugs dynamic response range varied from approximately 6-fold (CDH-2) to 8-fold (CDH-1,3) (Fig. 3e). […] The CDH-GEMS were also reversible upon intermittent drug treatment (Supplementary Fig. 7h, i). Despite that comparisons between CDH-TFs and CDH-GEMS are not straightforward due to differences in the reporter signaling pathways, we observe a general trend for the CDHs to present lower IC50s when used as extracellular modules, which is consistent with overcoming drug permeability issues in cells.
# HEK293T cells were maintained in DMEM medium with 10% FBS (Gibco) and Pen/Strep (Thermo Fisher). Cells were maintained and split every two days at around 80% confluence. HEK293T cells were seeded 24 h before transfection, and transfected with the lipofectamine 3000 kit (Thermo Fisher). Plasmids were cotransfected according to the Table S7. For the drug OFF-switch experiments, drugs were added 12 h post transfection and incubated with cells for 24 h before the SEAP detection assay.
# Secreted alkaline phosphatase (SEAP) activity (U/L) in cell culture supernatants was quantified by kinetic measurements at 405 nm (1 min/measurement for 30 cycles) of absorbance increase due to phosphatase-mediated hydrolysis of para-nitrophenyl phosphate (pNPP).
# Apparent IC50s of SPR drug competition assay were calculated using three-parameter nonlinear regression in GraphPad Prism (Version 8.3.0). Representative data of cellular assays are presented as individual values and mean values (bars). n = 3 refers to biological replicates. All IC50/EC50 values of cellular assays (CDH-TF, CDH-GEMS, AIR-TF and AIR-GEMS) reported were calculated using four-parameter nonlinear regression ± s.d.
# Supplementary Figure 9: Comparison of ON-state reporter expression of weak affinity variants of LD3 in CDH-1/2-GEMS platform. a) ON-state expression of CDH-1-GEMS with LD3 and LD3_v3. b) Drug dose-dependent responses in engineered cells determined for the CDH-1-GEMS with LD3 and LD3_v3. c) ON-state expression of CDH-2-GEMS with LD3 and LD3_v3. d) Drug dose-dependent responses in engineered cells determined for the CDH-2-GEMS with LD3 and LD3_v3. In the data shown HEK293T cells were […]
# quantification was done 24 hours after drug treatment. a, c) The bar charts show the mean ± s.d. of n = 3 biologically independent samples overlaid with a scatter dot plot of the original data points. b, d) Each […]
# parameter nonlinear regression.
# (1 picture or pasted object on this page, not shown here)
# [2] = tested on: SEAP expression in HEK293T cells; experiment: MISO designer cells (CDH-1 + CDH-3 dual switches); format: cell-based; design: SEAP / Bottom (best-fit value) / Top (best-fit value) / Span (best-fit value): unit not given here; conditions: for logIC50 (best-fit value): drug in nM; for SEAP, Drug-1 turn OFF CDH-1-TF: Fig S13f; for SEAP, Drug-1 turn OFF CDH-1-GEMS: Fig S13g, representative data
# Text: Fig. 5 Orthogonal chemical switches enable implementation of multi-input multi-output control modes in mammalian cells. a Scheme of multi-inputs multi-outputs (MIMO) designer cells where two drugs control two different outputs. b, c Cells were co-transfected with AIR-1/2-GEMS and CDH-3-TF regulate SEAP and Luciferase expression, respectively. […] AIR-1/2-GEMS coupled with SEAP expression circuits were co-transfected with CDH-1/2-TF circuits which control the Luciferase production. Respective drug concentrations ranged from 0.001 nM to 1 µM. […]
# We then engineered MISO cells (Fig. 5d) with CDH-1-TF and CDH-3-TF dual switches (Fig. 5e) that encode OFF behaviors controlled by Drug-1 and Drug-3. […] This output behavior is distinct from the typical SISO systems which only show two persistent states (high, low) (Fig. 2c, f). […] This type of output in biological systems could be utilized to produce graded levels of responses that are robust to minor oscillations in drug concentrations, and could be used to dissect fundamental biological processes but also to provide persistent response levels in translational applications.
# 1-TF and CDH-3-TF circuits. Drug-1 concentrations ranged from 0.001 nM to 1 µM (left) and 1 µM Drug-1 with serial diluted Drug-3 from 0.001 nM to 1 µM (right). g) Quantification of SEAP activity controlled […]
# by CDH-1-GEMS and CDH-3-GEMS circuits. […]
# Luciferase production (l). b-k) Each data point represents the mean of n = 3 biological replicates, and the dose-dependent curve were fitted using four-parameter nonlinear regression.
# [3] = Fig5e SEAP, CDH-1-TF, + 1 µM Drug-3, four-parameter fit
# [4] = Fig5f SEAP, CDH-1-GEMS, + 1 µM Drug-3, three-parameter fit
smiles,measurement,setting,value
"CN(C)CC#Cc1ccc(OCCCc2sc(N3CCc4cccc(C(=O)Nc5nc6ccccc6s5)c4C3)nc2C(=O)O)c(F)c1 [Drug-1, A-1155463]",SEAP %,"[1]; BclxL:LD3, 0.001 nM",18.0122% and 17.4443% and 16.8298%
same,SEAP %,"[1]; BclxL:LD3, 0.005 nM",16.6899% and 17.1312% and 17.1781%
same,SEAP %,"[1]; BclxL:LD3, 0.01 nM",17.4444% and 15.5469% and 16.1047%
same,SEAP %,"[1]; BclxL:LD3, 0.05 nM",15.1537% and 15.6285% and 14.5618%
same,SEAP %,"[1]; BclxL:LD3, 0.1 nM",14.6667% and 14.1653% and 14.4377%
same,SEAP %,"[1]; BclxL:LD3, 0.5 nM",13.4918% and 13.7573% and 13.7645%
same,SEAP %,"[1]; BclxL:LD3, 1 nM",11.4623% and 11.7897% and 11.4884%
same,SEAP %,"[1]; BclxL:LD3, 5 nM",7.87% and 8.2239% and 7.705%
same,SEAP %,"[1]; BclxL:LD3, 10 nM",5.487% and 5.0968% and 5.0693%
same,SEAP %,"[1]; BclxL:LD3, 50 nM",4.04% and 4.459% and 3.462%
same,SEAP %,"[1]; BclxL:LD3, 100 nM",4.1212% and 3.83% and 3.424%
same,SEAP %,"[1]; BclxL:LD3, 500 nM",3.2684% and 3.043% and 3.776%
same,SEAP %,"[1]; BclxL:LD3, 1000 nM",3.47% and 3.522% and 3.463%
same,SEAP %,"[1]; BclxL:LD3_v3, 0.001 nM",16.3076% and 17.437% and 16.859%
same,SEAP %,"[1]; BclxL:LD3_v3, 0.005 nM",14.9031% and 15.6748% and 15.9103%
same,SEAP %,"[1]; BclxL:LD3_v3, 0.01 nM",13.8744% and 14.7636% and 15.1685%
same,SEAP %,"[1]; BclxL:LD3_v3, 0.05 nM",12.8457% and 12.494% and 13.0699%
same,SEAP %,"[1]; BclxL:LD3_v3, 0.1 nM",9.936% and 9.732% and 9.834%
same,SEAP %,"[1]; BclxL:LD3_v3, 0.5 nM",8.327% and 7.455% and 7.64%
same,SEAP %,"[1]; BclxL:LD3_v3, 1 nM",9.561% and 8.788% and 8.726%
same,SEAP %,"[1]; BclxL:LD3_v3, 5 nM",4.582% and 4.8104% and 5.942%
same,SEAP %,"[1]; BclxL:LD3_v3, 10 nM",4.563% and 3.586% and 4.47%
same,SEAP %,"[1]; BclxL:LD3_v3, 50 nM",5.174% and 5.025% and 4.8595%
same,SEAP %,"[1]; BclxL:LD3_v3, 100 nM",4.401% and 4.122% and 4.248%
same,SEAP %,"[1]; BclxL:LD3_v3, 500 nM",4.318% and 3.762% and 3.577%
same,SEAP %,"[1]; BclxL:LD3_v3, 1000 nM",4.822% and 4.215% and 3.859%
same,Bottom (best-fit value),[2]; [3],10.05
same,HillSlope (best-fit value),[2]; [3],-1.155
same,Span (best-fit value),[2]; [3],11.2
same,Top (best-fit value),[2]; [3],21.26
same,logIC50 (best-fit value),[2]; [3],0.9359
same,SEAP,"[2]; Fig5e, turn OFF CDH-1-TF, 0.001 nM + 1 µM Drug-3",16.8327 and 22.6453 and 20.005
same,SEAP,"[2]; Fig5e, turn OFF CDH-1-TF, 0.01 nM + 1 µM Drug-3",20.9002 and 22.3965 and 21.4625
same,SEAP,"[2]; Fig5e, turn OFF CDH-1-TF, 0.1 nM + 1 µM Drug-3",21.6157 and 22.7521 and 21.3586
same,SEAP,"[2]; Fig5e, turn OFF CDH-1-TF, 1 nM + 1 µM Drug-3",21.4038 and 20.3272 and 21.0988
same,SEAP,"[2]; Fig5e, turn OFF CDH-1-TF, 10 nM + 1 µM Drug-3",13.4848 and 15.392 and 15.5387
same,SEAP,"[2]; Fig5e, turn OFF CDH-1-TF, 100 nM + 1 µM Drug-3",11.183 and 12.1962 and 11.7139
same,SEAP,"[2]; Fig5e, turn OFF CDH-1-TF, 1000 nM + 1 µM Drug-3",9.72 and 8.497 and 9.661
same,Bottom (best-fit value),[2]; [4],12.41
same,Span (best-fit value),[2]; [4],42.02
same,Top (best-fit value),[2]; [4],54.44
same,logIC50 (best-fit value),[2]; [4],0.8832
same,SEAP,"[2]; Fig5f, turn OFF CDH-1-GEMS, 0.001 nM + 1 µM Drug-3",55.6364 and 50.5517 and 48.8723
same,SEAP,"[2]; Fig5f, turn OFF CDH-1-GEMS, 0.01 nM + 1 µM Drug-3",61.2598 and 59.0443 and 45.7788
same,SEAP,"[2]; Fig5f, turn OFF CDH-1-GEMS, 0.1 nM + 1 µM Drug-3",46.4102 and 62.6516 and 50.3302
same,SEAP,"[2]; Fig5f, turn OFF CDH-1-GEMS, 1 nM + 1 µM Drug-3",57.5516 and 40.155 and 62.0361
same,SEAP,"[2]; Fig5f, turn OFF CDH-1-GEMS, 10 nM + 1 µM Drug-3",22.2271 and 39.6828 and 23.9896
same,SEAP,"[2]; Fig5f, turn OFF CDH-1-GEMS, 100 nM + 1 µM Drug-3",14.7907 and 24.2066 and 13.0137
same,SEAP,"[2]; Fig5f, turn OFF CDH-1-GEMS, 1000 nM + 1 µM Drug-3",8.999 and 11.1728 and 14.7089
same,"SEAP, Drug-1 turn OFF CDH-1-TF",[2]; Drug-1 0.001 nM,37.8605 U/L and 37.6407 U/L and 37.2767 U/L
same,"SEAP, Drug-1 turn OFF CDH-1-TF",[2]; Drug-1 0.01 nM,46.3191 U/L and 36.6964 U/L and 37.3836 U/L
same,"SEAP, Drug-1 turn OFF CDH-1-TF",[2]; Drug-1 0.1 nM,40.0956 U/L and 39.4221 U/L and 42.0031 U/L
same,"SEAP, Drug-1 turn OFF CDH-1-TF",[2]; Drug-1 1 nM,42.0045 U/L and 40.1385 U/L and 32.8382 U/L
same,"SEAP, Drug-1 turn OFF CDH-1-TF",[2]; Drug-1 10 nM,31.0901 U/L and 30.8325 U/L and 26.6542 U/L
same,"SEAP, Drug-1 turn OFF CDH-1-TF",[2]; Drug-1 100 nM,22.4541 U/L and 19.9215 U/L and 18.0282 U/L
same,"SEAP, Drug-1 turn OFF CDH-1-TF",[2]; Drug-1 1000 nM,23.3552 U/L and 18.7039 U/L and 14.93 U/L
same,"SEAP, Drug-1 turn OFF CDH-1-GEMS",[2]; Drug-1 0.001 nM,63.1346 U/L and 76.9207 U/L and 59.8899 U/L
same,"SEAP, Drug-1 turn OFF CDH-1-GEMS",[2]; Drug-1 0.01 nM,62.4115 U/L and 58.8113 U/L and 53.5466 U/L
same,"SEAP, Drug-1 turn OFF CDH-1-GEMS",[2]; Drug-1 0.1 nM,64.3309 U/L and 62.8524 U/L and 59.3961 U/L
same,"SEAP, Drug-1 turn OFF CDH-1-GEMS",[2]; Drug-1 1 nM,47.8019 U/L and 47.3132 U/L and 39.8687 U/L
same,"SEAP, Drug-1 turn OFF CDH-1-GEMS",[2]; Drug-1 10 nM,42.6016 U/L and 46.6627 U/L and 42.2581 U/L
same,"SEAP, Drug-1 turn OFF CDH-1-GEMS",[2]; Drug-1 100 nM,43.3282 U/L and 43.4567 U/L and 33.8379 U/L
same,"SEAP, Drug-1 turn OFF CDH-1-GEMS",[2]; Drug-1 1000 nM,36.4444 U/L and 23.5312 U/L and 44.7329 U/L
